From PubChem BioAssay AID1963854 (Molecular Pharmacology Branch, DTP, NCI, 2024)
pIC50: −log10 of the molar value.

Tested on: 186277-243-T-J2-PDC complex spheroid viability
Experiment: Anticancer human tumor 186277-243-T-J2-PDC patient-derived colon adenocarcinoma cell line growth inhibition [POLQ]
Details: for pIC50: curve of first compound; for viability, T/C: stronger effect = lower value
Protocol: Multicellular complex tumor spheroid response to Polymerase (POL) inhibitors (novobiocin, ART-558, RP6685) in combination with a variety of drugs and investigational agents in selected tumor cell lines
The POL inhibitors (novobiocin, ART-558, and RP6685) were evaluated both individually and in combination with standard of care and investigational anticancer small molecules within a complex spheroid model of solid tumors. . Complex spheroids include a stromal component modeled by human endothelial cells (HUVEC) and fibroblasts modeled by human mesenchymal stem cells (MSCs). The concentration ranges selected for each drug and investigational agent were based upon clinically achievable concentrations if the clinical Cmax of the agent was known.
Compounds. The drugs and investigational agents: novobiocin (NSC847541), ART-558 (NSC835418), RP-6685 (NSC848927), peposertib (NSC802822), ceralasertib (NSC780249), elimusertib (NSC800525), camonsertib (NSC841442), AZD-1390 (NSC803789), olaparib (NSC753686), talazoparib (NSC767125), rucaparib (NSC756644), sotorasib (NSC818433), MRTX-1133 (NSC836407), SN-38 (NSC673596), topotecan (NSC609699), epotoside (NSC141540), doxorubicin (NSC123127), gemcitabine (NSC613327), 5-fluorouracil (NSC19893), paclitaxel (NSC125973), vemurafenib (NSC761431), MSA-2 (NSC828583), SN-011 (NSC837082), adavosertib (NSC754352), prexasertib (NSC758257), carboplatin (NSC241240) and oxaliplatin (NSC266046), were obtained from the National Cancer Institute (NCI) Developmental Therapeutics Program Chemical Repository (21). The FDA-approved anticancer drug set is available from the Developmental Therapeutics Program at https://dtp.cancer.gov/organization/dscb/obtaining/. […] The stock solutions were prepared in dimethyl sulfoxide (DMSO, Sigma-Aldrich, St. Louis, MO, cat. D2650), except for the platinum compounds which were prepared in saline (Quality Biological, Gaithersburg, MD, cat. 114-055-101), at 800-fold the tested concentration and stored at -70 degrees C prior to their use. All drugs and investigational agents were tested over a range starting from a high concentration at or near the clinical Cmax and decreasing in half-log increments. If the clinical Cmax for an agent had not been determined, the highest concentration tested was 10 microM, except for SN-38, which was tested at a high concentration of 1 microM.
Cell Culture. All cells were maintained in an incubator at 37 degrees C and 5% CO2 with 95% humidity. The PDC lines were cultured according to standard operating procedures established by the NCI PDMR (https://pdmr.cancer.gov). Table 3 of the manuscript, lists the cell lines along with the number of the three cell types plated to form the mct-spheroids and media for tumor cell growth. After thawing, all PDC lines, except 997537-175-T-J1-PDC and 415267-285-R-J2-PDC, were cultured in Matrigel-coated flasks prepared with a working solution of 1X Ham's F-12 nutrient mix, without supplementation (Thermo Fisher Scientific, cat. 11765054), 100 U/mL penicillin-streptomycin (Thermo Fisher Scientific, cat. 15140122), and 2.5% Matrigel (Corning Inc., Corning, NY, cat. 354248) for the first three passages. The two PDC lines 997537-175-T-J1-PDC and 415267-285-R-J2-PDC were cultured on uncoated flasks. The 857933-349-R-J2-PDC line was cultured in 6C/Colon 1B media containing advanced DMEM/F-12 (Thermo Fisher Scientific, cat. 12634028), 10 mM HEPES (Thermo Fisher Scientific, cat. 15630080), 1X GlutaMAX supplement (Thermo Fisher Scientific, cat. 35050061), 0.1 mg/mL primocin (InvivoGen, San Diego, CA, cat. ant-pm-2), 10% defined fetal bovine serum, heat inactivated (HyClone Laboratories Inc., Logan, UT, cat. SH30070.03HI), 50% L-WRN conditioned media (ATCC, cat. CRL-3276), 1.25 mM N-Acetyl-L-cysteine (Sigma-Aldrich, cat. A9165), 10 mM nicotinamide (Sigma-Aldrich, cat. N0636), 1X B-27 supplement (Thermo Fisher Scientific, cat. 17504044), 1X N-2 supplement (Thermo Fisher Scientific, cat. […]

[1] = second compound 0.0316 µM, first compound 0.0316 µM
[2] = second compound 0.0316 µM, first compound 0.1 µM
[3] = second compound 0.0316 µM, first compound 0.316 µM
[4] = second compound 0.0316 µM, first compound 1 µM
[5] = second compound 0.0316 µM, first compound 3.16 µM
[6] = second compound 0.0316 µM, first compound 10 µM
[7] = second compound 0.1 µM, first compound 0.0316 µM
[8] = second compound 0.1 µM, first compound 0.1 µM
[9] = second compound 0.1 µM, first compound 0.316 µM
[10] = second compound 0.1 µM, first compound 1 µM
[11] = second compound 0.1 µM, first compound 3.16 µM
[12] = second compound 0.1 µM, first compound 10 µM
[13] = second compound 0.316 µM, first compound 0.0316 µM
[14] = second compound 0.316 µM, first compound 0.1 µM
[15] = second compound 0.316 µM, first compound 0.316 µM
[16] = second compound 0.316 µM, first compound 1 µM
[17] = second compound 0.316 µM, first compound 3.16 µM
[18] = second compound 0.316 µM, first compound 10 µM
[19] = second compound 1 µM, first compound 0.0316 µM
[20] = second compound 1 µM, first compound 0.1 µM
[21] = second compound 1 µM, first compound 0.316 µM
[22] = second compound 1 µM, first compound 1 µM
[23] = second compound 1 µM, first compound 3.16 µM
[24] = second compound 1 µM, first compound 10 µM
[25] = second compound 3.16 µM, first compound 0.0316 µM
[26] = second compound 3.16 µM, first compound 0.1 µM
[27] = second compound 3.16 µM, first compound 0.316 µM
[28] = second compound 3.16 µM, first compound 1 µM
[29] = second compound 3.16 µM, first compound 3.16 µM
[30] = second compound 3.16 µM, first compound 10 µM
[31] = second compound 10 µM, first compound 0.0316 µM
[32] = second compound 10 µM, first compound 0.1 µM
[33] = second compound 10 µM, first compound 0.316 µM
[34] = second compound 10 µM, first compound 1 µM
[35] = second compound 10 µM, first compound 3.16 µM
[36] = second compound 10 µM, first compound 10 µM
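Also: spheroids exposed to compounds for seven days.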
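For viability, T/C in this document: 100% = DMSO vehicle control viability.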

Molecule `CC(C)n1c(=O)n(C)c2cnc3cc(F)c(-c4ccc(OCCCN5CCCCC5)nc4)cc3c21` + COC1C(OC(N)=O)C(O)C(Oc2ccc3c(O)c(NC(=O)c4ccc(O)c(CC=C(C)C)c4)c(=O)oc3c2C)OC1(C)C has a pIC50 (second compound 0.0316 µM) of less than 5.00, a pIC50 (second compound 0.1 µM) of less than 5.00 and a pIC50 (second compound 0.316 µM) of less than 5.00. The pIC50 (second compound 1 µM) was less than 5.00, the pIC50 (second compound 3.16 µM) was less than 5.00 and the pIC50 (second compound 10 µM) was less than 5.00. It also gave a viability, T/C [1] of 104%, a viability, T/C [2] of 97.4% and a viability, T/C [3] of 98.1%. It also gave a viability, T/C [4] of 93.2%, a viability, T/C [5] of 94.3% and a viability, T/C [6] of 116%. The viability, T/C [7] was 111%, the viability, T/C [8] was 87.2% and the viability, T/C [9] was 103%. The viability, T/C [10] was 101%, the viability, T/C [11] was 107% and the viability, T/C [12] was 92.2%. It also gave a viability, T/C [13] of 99.1%, a viability, T/C [14] of 98.3% and a viability, T/C [15] of 96.1%. The viability, T/C [16] was 97.9%, the viability, T/C [17] was 114% and the viability, T/C [18] was 108%. For the same molecule, the viability, T/C [19] was 110%, the viability, T/C [20] was 93.7% and the viability, T/C [21] was 86.6%. It also gave a viability, T/C [22] of 107%, a viability, T/C [23] of 101% and a viability, T/C [24] of 101%. It also gave a viability, T/C [25] of 98.2%, a viability, T/C [26] of 95.2% and a viability, T/C [27] of 105%. It also gave a viability, T/C [28] of 106%, a viability, T/C [29] of 92.5% and a viability, T/C [30] of 102%. The viability, T/C [31] was 102%, the viability, T/C [32] was 109% and the viability, T/C [33] was 115%. It also gave a viability, T/C [34] of 115%, a viability, T/C [35] of 108% and a viability, T/C [36] of 89.8%.

For `CC1COCCN1c1cc(C2(S(C)(=N)=O)CC2)nc(-c2ccnc3[nH]ccc23)n1` (centres undefined) + Nc1ccc(C#CCN(C(=O)Cc2ncc(C(F)(F)F)cc2C(F)(F)F)c2ccc(F)cc2)nn1, the pIC50 (second compound 0.0316 µM) was 5.74, the pIC50 (second compound 0.1 µM) was 5.75 and the pIC50 (second compound 0.316 µM) was 5.72. The pIC50 (second compound 1 µM) was 5.75, the pIC50 (second compound 3.16 µM) was 5.78 and the pIC50 (second compound 10 µM) was 5.79. The viability, T/C [1] was 103%, the viability, T/C [2] was 96.5% and the viability, T/C [3] was 102%. For the same molecule, the viability, T/C [4] was 88.1%, the viability, T/C [5] was 14.1% and the viability, T/C [6] was 9.47%. The viability, T/C [7] was 97.2%, the viability, T/C [8] was 90.5% and the viability, T/C [9] was 93%. It also gave a viability, T/C [10] of 85.9%, a viability, T/C [11] of 14.8% and a viability, T/C [12] of 10.2%. It also gave a viability, T/C [13] of 109%, a viability, T/C [14] of 102% and a viability, T/C [15] of 110%. The viability, T/C [16] was 93.6%, the viability, T/C [17] was 14.8% and the viability, T/C [18] was 10.7%. The viability, T/C [19] was 99.4%, the viability, T/C [20] was 105% and the viability, T/C [21] was 98.8%. For the same molecule, the viability, T/C [22] was 84.8%, the viability, T/C [23] was 15.2% and the viability, T/C [24] was 8.83%. The viability, T/C [25] was 109%, the viability, T/C [26] was 104% and the viability, T/C [27] was 118%. It also gave a viability, T/C [28] of 78.7%, a viability, T/C [29] of 15% and a viability, T/C [30] of 8.91%. It also gave a viability, T/C [31] of 105%, a viability, T/C [32] of 94.5% and a viability, T/C [33] of 97.6%. For the same molecule, the viability, T/C [34] was 77.1%, the viability, T/C [35] was 14.3% and the viability, T/C [36] was 8.26%.
